Experimental data published in ChEMBL document CHEMBL1201862, “PubChem BioAssay data set” (2004).
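Results reflect a 48-hour exposure of cells in 96-well plates to compound at five concentrations. At the GI50, growth is halved.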 The source made the active and inactive calls. Rule as the data show it: active = GI50 up to about 1.1 µM and inactive = higher.

Experiments:
Assay in all cases: NCI tumour cell line growth inhibition, 48 h
M14 = tested on: M14
OVCAR-4 = tested on: OVCAR-4
SW-620 = tested on: SW-620
SN12C = tested on: SN12C
SF-295 = tested on: SF-295
MCF7 = tested on: MCF7
TK-10 = tested on: TK-10
SNB-19 = tested on: SNB-19
NCI-H23 = tested on: NCI-H23
Malme-3M = tested on: Malme-3M
NCI-H460 = tested on: NCI-H460
HL-60 = tested on: HL-60
MOLT-4 = tested on: MOLT-4
SR = tested on: SR
DU-145 = tested on: DU-145
EKVX = tested on: EKVX
PC-3 = tested on: PC-3
HOP-92 = tested on: HOP-92
RPMI-8226 = tested on: RPMI-8226
MDA-MB-231 = tested on: MDA-MB-231

SMILES	GI50 (M14)	GI50 (OVCAR-4)	GI50 (SW-620)	GI50 (SN12C)	GI50 (SF-295)	GI50 (MCF7)	GI50 (TK-10)	GI50 (SNB-19)	GI50 (NCI-H23)	GI50 (Malme-3M)	GI50 (NCI-H460)	GI50 (HL-60)	GI50 (MOLT-4)	GI50 (SR)	GI50 (DU-145)	GI50 (EKVX)	GI50 (PC-3)	GI50 (HOP-92)	GI50 (RPMI-8226)	GI50 (MDA-MB-231)
O=C1C(Cl)=C(Cl)C(=O)C(CCNc2nccs2)=C1Cl	20.2 µM (inactive)	> 100 µM (inactive)	29.4 µM (inactive)	29.3 µM (inactive)	> 100 µM (inactive)	33 µM (inactive)	29.2 µM (inactive)	> 100 µM (inactive)	31.2 µM (inactive)	20.4 µM (inactive)	> 100 µM (inactive)	43.7 µM (inactive)	51.4 µM (inactive)	47.2 µM (inactive)	58.7 µM (inactive)	24.5 µM (inactive)	18.5 µM (inactive)	22.1 µM (inactive)	–	–
COc1ccc(NC(=O)CSC(=O)c2ccccc2)c(SCCSSCCSc2cc(OC)ccc2NC(=O)CSC(=O)c2ccccc2)c1	15.7 µM (inactive)	6.44 µM (inactive)	> 100 µM (inactive)	> 100 µM (inactive)	> 100 µM (inactive)	66.5 µM (inactive)	> 100 µM (inactive)	> 100 µM (inactive)	73.3 µM (inactive)	69.3 µM (inactive)	4.62 µM (inactive)	4.22 µM (inactive)	3.5 µM (inactive)	3.75 µM (inactive)	> 100 µM (inactive)	72.9 µM (inactive)	> 100 µM (inactive)	84.9 µM (inactive)	> 100 µM (inactive)	–
SC1=NNC2(C(S)=N1)c1ccccc1-c1ccccc12	> 10 µM (inactive)	> 10 µM (inactive)	> 10 µM (inactive)	> 10 µM (inactive)	–	5.37 µM (inactive)	> 10 µM (inactive)	–	> 10 µM (inactive)	> 10 µM (inactive)	> 10 µM (inactive)	> 10 µM (inactive)	> 10 µM (inactive)	> 10 µM (inactive)	> 10 µM (inactive)	> 10 µM (inactive)	–	> 10 µM (inactive)	> 10 µM (inactive)	> 10 µM (inactive)
Cc1ccc(NC(=O)C(=O)C(C(=O)/C=C/c2ccccc2)C2OC(=O)c3ccccc32)c(C)c1 (stereo not given)	> 100 µM (inactive)	> 100 µM (inactive)	> 100 µM (inactive)	> 100 µM (inactive)	> 100 µM (inactive)	–	> 100 µM (inactive)	> 100 µM (inactive)	> 100 µM (inactive)	> 100 µM (inactive)	> 100 µM (inactive)	> 100 µM (inactive)	77.4 µM (inactive)	45.4 µM (inactive)	–	> 100 µM (inactive)	–	> 100 µM (inactive)	60.4 µM (inactive)	–
COc1cc(O)c(C(C)=O)c(O)c1	86.9 µM (inactive)	76.2 µM (inactive)	> 100 µM (inactive)	59 µM (inactive)	92.5 µM (inactive)	37.5 µM (inactive)	> 100 µM (inactive)	–	30.8 µM (inactive)	> 100 µM (inactive)	88.1 µM (inactive)	–	–	36.3 µM (inactive)	64.9 µM (inactive)	37.4 µM (inactive)	60.7 µM (inactive)	25 µM (inactive)	–	–
O=C1NC(=S)NC(=O)C1=CC1CC1	> 100 µM (inactive)	> 100 µM (inactive)	> 100 µM (inactive)	> 100 µM (inactive)	> 100 µM (inactive)	–	> 100 µM (inactive)	> 100 µM (inactive)	> 100 µM (inactive)	> 100 µM (inactive)	> 100 µM (inactive)	> 100 µM (inactive)	> 100 µM (inactive)	> 100 µM (inactive)	–	> 100 µM (inactive)	–	> 100 µM (inactive)	> 100 µM (inactive)	–
CCOC(=O)C1C(=O)c2cccc(OC)c2C2COC(=O)N12 (stereo not given)	> 100 µM (inactive)	> 100 µM (inactive)	> 100 µM (inactive)	> 100 µM (inactive)	> 100 µM (inactive)	–	> 100 µM (inactive)	> 100 µM (inactive)	> 100 µM (inactive)	> 100 µM (inactive)	> 100 µM (inactive)	> 100 µM (inactive)	> 100 µM (inactive)	> 100 µM (inactive)	–	> 100 µM (inactive)	–	> 100 µM (inactive)	> 100 µM (inactive)	–
O=C1/C(=C/c2ccccc2)CCCC1CN1CCCCC1 (stereo not given)	1.89 µM (inactive)	2.05 µM (inactive)	1.33 µM (inactive)	5.9 µM (inactive)	19.1 µM (inactive)	0.428 µM (active)	2.59 µM (inactive)	15.7 µM (inactive)	4.97 µM (inactive)	1.82 µM (inactive)	6.58 µM (inactive)	–	1.43 µM (inactive)	–	14.3 µM (inactive)	15.1 µM (inactive)	11.4 µM (inactive)	2.24 µM (inactive)	> 100 µM (inactive)	2 µM (inactive)
